Test results: US6620828B2, “Thiazole compounds and pharmaceutical compositions for inhibiting protein kinases and methods for their use” (Agouron Pharmaceuticals, Inc., priority 1999, dated 2003)
pIC50, pKi: −log10 of the molar value. Values joined by “and” are separate entries in the source; they are usually repeats but may differ in a detail not shown here. Equal values may be shown once. Read-outs that look alike come from different tables or passages of the source.

Experiments:
CDK2/Cyclin A complex = CDK2/Cyclin A complex (Homo sapiens, UniProt P24941); assay: CDK2/Cyclin A assay; format: biochemical; details: for CDK2 % inhibition @ 10: at 10 (head μM)
How it was run: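 Radiometric assay: 150 nM CDK2/cyclin A (insect-cell CDK2, truncated cyclin A) phosphorylates His-tagged Rb fragment (residues 386-928) with 25 μM ATP plus [32P]ATP, pH 7.4 HEPES, 2% DMSO, 30 °C for 20 min. Filter-captured product counted by phosphorimager; apparent Ki from competitive or tight-binding inhibition fits.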

CDK4/Cyclin D3 complex = molecular target: T1, CDK4/Cyclin D3 complex (Homo sapiens, UniProt P11802); assay: CDK4/Cyclin D assay; format: biochemical; details: for CDK4 % inhibition @ 10: at 10 (head μM)
T1 construct: made in house; host or cells: insect cells co-infected with baculovirus vectors
How it was run: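 Insect-cell-expressed CDK4/cyclin D3 (50 nM) phosphorylating His-tagged Rb fragment (residues 386-928) with 25 μM [^32P]ATP in HEPES pH 7.4, MgCl2, 2% DMSO; 20 min at 30 °C, EDTA stop. Filter-captured 32P by phosphorimager; apparent Ki from competitive or tight-binding inhibition fits.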

CHK1 = molecular target: T2, CHK1 (Homo sapiens, UniProt O14757); assay: CHK1 high-throughput screening; format: biochemical; details: for inhibition at 20 µM: read-out: % inhibition @ 20 μM, Table 4, repeated entries per example
T2 sequence (O14757 1-476): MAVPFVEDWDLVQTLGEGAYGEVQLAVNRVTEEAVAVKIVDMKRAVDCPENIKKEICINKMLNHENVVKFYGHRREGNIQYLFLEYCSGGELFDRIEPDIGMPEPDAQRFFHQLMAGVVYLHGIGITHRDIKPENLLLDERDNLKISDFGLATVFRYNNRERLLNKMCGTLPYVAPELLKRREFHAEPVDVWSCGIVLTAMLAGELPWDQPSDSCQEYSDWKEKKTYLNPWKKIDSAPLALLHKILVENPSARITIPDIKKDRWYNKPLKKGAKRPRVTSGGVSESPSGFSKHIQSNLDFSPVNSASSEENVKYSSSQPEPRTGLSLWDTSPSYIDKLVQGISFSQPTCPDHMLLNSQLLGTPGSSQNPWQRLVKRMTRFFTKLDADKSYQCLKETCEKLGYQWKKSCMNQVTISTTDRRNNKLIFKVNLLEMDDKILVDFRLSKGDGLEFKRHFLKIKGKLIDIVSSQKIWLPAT

[1] = molecular target: T3, phosphorylated VEGF-R2Δ50 (Homo sapiens, UniProt P35968, DEL940-989/E990V); assay: VEGF-R2 ELISA assay; format: biochemical; details: * determined with ELISA assay, read-out: FLVK-P Ki
T3 construct: VEGF-R2Δ50 contains residues 806-939 and 990-1171; made in house; host or cells: baculovirus/insect cells
Excerpt: VEGF-R2 Construct for Assay: This construct determines the ability of a test compound to inhibit tyrosine kinase activity. A construct (VEGF-R2Δ50) of the cytosolic domain of human vascular endothelial growth factor receptor 2 (VEGF-R2) lacking the 50 central residues of the 68 residues of the kinase insert domain was expressed in a baculovirus/insect cell system. Of the 1356 residues of full-length VEGF-R2, VEGF-R2Δ50 contains residues 806-939 and 990-1171, and also one point mutation (E990V) within the kinase insert domain relative to wild-type VEGF-R2. Autophosphorylation of the purified construct was performed by incubation of the enzyme at a concentration of 4 μM in the presence of 3 mM ATP and 40 mM MgCl2 in 100 mM Hepes, pH 7.5, containing 5% glycerol and 5 mM DTT, at 4° C. for 2 h. […] See Parast et al., Biochemistry, 37, 16788-16801 (1998).
Formation of phosphogastrin was monitored using biotinylated gastrin peptide (1-17) as substrate. Biotinylated phosphogastrin was immobilized using streptavidin coated 96-well microtiter plates followed by detection using anti-phosphotyrosine-antibody conjugated to horseradish peroxidase. The activity of horseradish peroxidase was monitored using 2,2′-azino-di-[3-ethylbenzathiazoline sulfonate(6)]diammonium salt (ABTS). Typical assay solutions contained: 2 μM biotinylated gastrin peptide; 5 mM DTT; 20 μM ATP; 26 mM MgCl2; and 2 mM MnCl2 in 200 mM Hepes, pH 7.5. The assay was initiated with 0.8 nM of phosphorylated VEGF-R2Δ50. Horseradish peroxidase activity was assayed using ABTS, 10 mM. The horseradish peroxidase reaction was quenched by addition of acid (H2SO4), followed by absorbance reading at 405 nm. Ki values were determined by measuring enzyme activity in the presence of varying concentrations of test compounds. The data were analyzed using Enzyme Kinetic and Kaleidagraph software.

[2] = test system: human umbilical vein endothelial cells (HUVEC); assay: HUVEC proliferation assay; format: cell-based; details: Homo sapiens, HUVEC, Table 1
How it was run: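 Readout was MTT dye reduction (A595) after 72 h of stimulation with VEGF at 6 ng/ml final. Compound, in 0.1% DMSO final, was added 1 h before VEGF to HUVEC starved 24 h in 1% FBS. % inhibition was scaled between VEGF-alone and unstimulated wells; IC50 was fitted from triplicate dose curves.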

[3] = test system: lung cancer cells (line MV522); assay: Cancer cell proliferation (MV522) assay; format: cell-based; details: MV522, Table 1
[4] = molecular target: T4, unphosphorylated VEGF-R2Δ50 (FLVK) (Homo sapiens, UniProt P35968, DEL940-989/E990V); assay: VEGF-R2 coupled spectrophotometric assay, unphosphorylated enzyme (FLVK); format: biochemical; details: Table 1
T4 construct: VEGF-R2Δ50 contains residues 806-939 and 990-1171; made in house; host or cells: baculovirus/insect cells
How it was run: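 Unphosphorylated VEGF-R2Δ50 (5 to 40 nM) with 20 mM poly(E4Y1), 3 mM ATP, 60 mM MgCl2, 2 mM MnCl2 in 200 mM Hepes pH 7.5. ADP production coupled via PK/LDH to NADH oxidation, read at 340 nm. Ki from activity at varying compound concentrations.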

[5] = molecular target: T5, phosphorylated VEGF-R2Δ50 (FLVK-P) (Homo sapiens, UniProt P35968, DEL940-989/E990V); assay: VEGF-R2 coupled spectrophotometric (FLVK-P) assay; format: biochemical; details: spectrophotometric assay
T5 construct: VEGF-R2Δ50 contains residues 806-939 and 990-1171; made in house; host or cells: baculovirus/insect cells
How it was run: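 Baculovirus-expressed human VEGF-R2Δ50 (residues 806-939/990-1171, E990V) was autophosphorylated with 3 mM ATP, 40 mM MgCl2 for 2 h at 4° C. ADP formation was coupled via PK/LDH to NADH oxidation, read at 340 nm, with 5.1 mM poly(E4Y1), 1 mM ATP, 25 mM MgCl2, Hepes pH 7.5. Ki came from activity across compound concentrations.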

FGF-R1 = molecular target: T6, FGF-R1 (Homo sapiens, UniProt P11362, C488A/C584S/L457V); assay: FGF-R spectrophotometric assay; format: biochemical; details: Table 2
T6 construct: starting from the endogenous methionine residue 456 to glutamate 766; made in house; host or cells: baculovirus vector expression system
Protocol: FGF-R1 Construct for Assay: The intracellular kinase domain of human FGF-R1 was expressed using the baculovirus vector expression system starting from the endogenous methionine residue 456 to glutamate 766, according to the residue numbering system of Mohammadi et al., Mol. Cell. Biol., 16, 977-989 (1996). In addition, the construct also has the following 3 amino acid substitutions: L457V, C488A, and C584S.
The spectrophotometric assay was carried out as described above for VEGF-R2, except for the following changes in concentration: FGF-R=50 nM, ATP=2 mM, and poly(E4Y1)=15 mM.

T3 sequence (P35968 with tags, fused parts or gaps DEL940-989/E990V limits assumed): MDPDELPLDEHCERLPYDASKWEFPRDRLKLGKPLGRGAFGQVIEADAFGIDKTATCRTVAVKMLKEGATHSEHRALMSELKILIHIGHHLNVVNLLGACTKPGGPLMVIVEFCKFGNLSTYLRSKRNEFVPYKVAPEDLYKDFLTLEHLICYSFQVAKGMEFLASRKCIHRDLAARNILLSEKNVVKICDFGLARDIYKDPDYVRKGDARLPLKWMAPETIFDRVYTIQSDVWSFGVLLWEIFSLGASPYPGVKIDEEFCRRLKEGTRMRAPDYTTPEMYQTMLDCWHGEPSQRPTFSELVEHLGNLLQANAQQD
T1 sequence (P11802 whole entry): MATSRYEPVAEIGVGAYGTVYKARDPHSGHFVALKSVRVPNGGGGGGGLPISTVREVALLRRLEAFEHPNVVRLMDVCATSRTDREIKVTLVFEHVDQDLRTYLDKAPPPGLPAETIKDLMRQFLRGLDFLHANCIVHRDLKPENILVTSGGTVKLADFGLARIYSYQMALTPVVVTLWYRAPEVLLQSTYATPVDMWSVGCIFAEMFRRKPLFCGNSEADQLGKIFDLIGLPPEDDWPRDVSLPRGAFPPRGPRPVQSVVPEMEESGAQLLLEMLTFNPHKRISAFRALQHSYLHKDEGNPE
T1 sequence (P30281 whole entry partner): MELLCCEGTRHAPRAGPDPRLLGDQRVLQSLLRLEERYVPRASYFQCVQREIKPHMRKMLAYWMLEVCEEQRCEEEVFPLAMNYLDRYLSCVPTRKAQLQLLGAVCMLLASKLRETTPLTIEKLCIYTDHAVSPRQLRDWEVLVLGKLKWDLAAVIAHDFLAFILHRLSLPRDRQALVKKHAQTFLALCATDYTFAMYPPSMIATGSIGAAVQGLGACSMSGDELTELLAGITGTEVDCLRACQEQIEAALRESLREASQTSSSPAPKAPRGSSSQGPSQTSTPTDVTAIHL
T5 sequence (P35968 with tags, fused parts or gaps DEL940-989/E990V limits assumed): as the sequence (P35968 with tags, fused parts or gaps DEL940-989/E990V limits assumed) above
T4 sequence (P35968 with tags, fused parts or gaps DEL940-989/E990V limits assumed): as above
T6 sequence (P11362 456-766 L457V/C488A/C584S): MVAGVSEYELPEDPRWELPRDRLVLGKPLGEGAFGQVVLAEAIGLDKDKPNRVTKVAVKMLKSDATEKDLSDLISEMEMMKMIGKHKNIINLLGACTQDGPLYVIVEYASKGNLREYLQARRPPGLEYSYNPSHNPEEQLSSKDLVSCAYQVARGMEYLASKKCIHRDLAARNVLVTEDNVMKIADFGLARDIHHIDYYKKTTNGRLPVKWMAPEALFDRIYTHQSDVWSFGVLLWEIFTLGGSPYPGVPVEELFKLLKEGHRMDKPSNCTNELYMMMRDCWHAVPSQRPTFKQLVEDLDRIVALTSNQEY

With `Nc1nc(Nc2ccc(S(N)(=O)=O)cc2)sc1-c1nc(-c2ccc(F)cc2F)cs1` [A(4), 4-[4′-Amino-4-(2,4-difluoro-phenyl)-[2,5′]bithiazolyl-2′-ylamino]-benzenesulfonamide] the “CDK2 % inhibition @ 10” value (CDK2/Cyclin A complex; Table 2) was 57% @, the “CDK4 % inhibition @ 10” value (CDK4/Cyclin D3 complex; Table 2) was 42% @ and the melting point was 233 to 238 °C.

For `Nc1nc(Nc2ccc(S(N)(=O)=O)cc2)sc1-c1nc(-c2ccc(F)cc2)cs1` [A(5), 4-[4′-Amino-4-(4-fluoro-phenyl)-[2,5′]bithiazolyl-2′-ylamino]-benzenesulfonamide], the “CDK2 % inhibition @ 10” value (CDK2/Cyclin A complex; Table 2) was 27% @, the “CDK4 % inhibition @ 10” value (CDK4/Cyclin D3 complex; Table 2) was 30% @ and the melting point was 254 to 257 °C.

With `Nc1nc(Nc2ccc(S(N)(=O)=O)cc2)sc1-c1nc(-c2ccc(Cl)cc2Cl)cs1` [A(6), 4-[4′-Amino-4-(2,4-dichloro-phenyl)-[2,5′]bithiazolyl-2′-ylamino]-benzenesulfonamide] the “CDK2 % inhibition @ 10” value (CDK2/Cyclin A complex; Table 2) was 36% @, the “CDK4 % inhibition @ 10” value (CDK4/Cyclin D3 complex; Table 2) was 54% @ and the melting point was 173 to 175 °C (dec.).

In the case of `Cc1c(F)cc(-c2csc(-c3sc(Nc4ccc(S(N)(=O)=O)cc4)nc3N)n2)cc1Cl` [A(7), 4-[4′-Amino-4-(3-chloro-5-fluoro-4-methyl-phenyl)-[2,5′]bithiazolyl-2′-ylamino]-benzenesulfonamide], the “CDK2 % inhibition @ 10” value (CDK2/Cyclin A complex; Table 2) was 25% @, the “CDK4 % inhibition @ 10” value (CDK4/Cyclin D3 complex; Table 2) was 28% @ and the melting point was 208 to 212 °C.

Work on `Nc1nc(Nc2ccc(S(N)(=O)=O)cc2)sc1-c1nc(-c2cccc(C(=O)O)c2)cs1` [A(21), 3-[4′-Amino-2′-(4-sulfamoyl-phenylamino)-[2,5′]bithiazolyl-4-yl]-benzoic acid] yielded an inhibition at 20 µM (CHK1) of -7.2%, a pKi (CDK2/Cyclin A complex; Table 2) of 5.09 and a pKi (CDK4/Cyclin D3 complex; Table 2) of 4.35. The pKi ([1]; Table 2) was 5.06.

For `Cc1ccc(-c2csc(-c3sc(Nc4ccc(S(N)(=O)=O)cc4)nc3N)n2)cc1` [A(24), 4-(4′-Amino-4-p-tolyl-[2,5′]bithiazolyl-2′-ylamino)-benzenesulfonamide], the inhibition at 20 µM (CHK1) was 13.3%, the pKi (CDK2/Cyclin A complex; Table 2) was 5.47 and the “CDK4 % inhibition @ 10” value (CDK4/Cyclin D3 complex; Table 2) was 64% @. For the same compound, the pKi ([1]; Table 2) was 5.26.

For `Nc1nc(Nc2ccc(S(N)(=O)=O)cc2)sc1-c1nc(-c2cc(O)cc(OCc3ccccc3)c2)cs1` [A(61), 4-[4′-Amino-4-(3-benzyloxy-5-hydroxy-phenyl)-[2,5]bithiazolyl-2′-ylamino]-benzenesulfonamide], the pKi (CDK2/Cyclin A complex; Table 2) was 5.57 and the melting point was 185 to 187 °C (dec.).

With `Nc1nc(Nc2ccc(S(N)(=O)=O)cc2)sc1-c1nc(/C=C/c2ccc(O)cc2)cs1` [A(64), 4-{4′-Amino-4-[2-(4-hydroxy-phenyl)-vinyl]-[2,5′]bithiazolyl-2′-ylamino}-benzenesulfonamide] the “% inhibition @ 20 μM” value (CHK1; Table 4, repeated entries per example, 20 µM) was 1.1% and 7.2% and 8.3%, the pKi (CDK2/Cyclin A complex; Table 2) was 6.28 and the melting point was 138 to 140 °C (dec.).

Work on `COc1cc(Nc2nc(N)c(-c3nc(-c4cccc(NC(=O)Oc5ccccc5)c4)cs3)s2)cc(OC)c1OC` [D(4), {3-[4′-Amino-2′-(3,4,5-trimethoxy-phenylamino)-[2,5′]bithiazolyl-4-yl]-phenyl}-carbamic acid phenyl ester] yielded a pIC50 [2] of 6.62, a pKi ([1]; Table 1) of 8.12 and a pIC50 [3] of under 5.00.

`COc1cc(Nc2nc(N)c(-c3nc(-c4cccc(NC(=O)c5cc6ccccc6o5)c4)cs3)s2)cc(OC)c1OC` [D(21), Benzofuran-2-carboxylic acid {3-[4′-amino-2′-(3,4,5-trimethoxy-phenylamino)-[2,5′]bithiazolyl-4-yl]-phenyl}-amide] gave a pIC50 [2] of 6.70, a pKi ([1]; Table 1) of 7.22 and a pIC50 [3] of under 5.00.

`COc1cc(Nc2nc(N)c(-c3nc(-c4cccc(NC(=O)c5ncc(C)s5)c4)no3)s2)cc(OC)c1OC` [D(51)] gave a pIC50 [2] of 7.40, a pKi [4] of 9.21 and a pKi ([1]; Table 1) of 7.49. It also gave a pIC50 [3] of under 5.00.

With `Nc1nc(N)c(-c2nc(-c3cccc(NC(=O)c4ccccc4)c3)cs2)s1` [E(2), N-[3-(2 ′,4′-Diamino-[2,5′]bithiazolyl-4-yl)-phenyl]benzamide] the melting point was 159 to 163 °C (dec.), the pKi [4] was 7.42 and the pKi ([5]; Table 1) was 6.41.

`Nc1nc(Nc2ccc(S(N)(=O)=O)cc2)sc1-c1nc(O)cs1` [H(1), 4-(4′-Amino-4-hydroxy-[2,5′]bithiazolyl-2′-ylamino)-benzenesulfonamide] showed a pKi (CDK2/Cyclin A complex; Table 2) of 6.19, a pKi (CDK4/Cyclin D3 complex; Table 2) of 5.42 and a pKi ([1]; Table 2) of 5.44.

In the case of `CN(C)c1ccc(Nc2nc(N)c(-c3nc(O)c(-c4ccccc4O)s3)s2)cc1` [H(3), 4′-Amino-2′-(4-dimethylamino-phenylamino)-5-(2-hydroxy-phenyl)-[2,5′]bithiazoly-4-ol], the pKi (CDK2/Cyclin A complex; Table 2) was 5.06, the pKi (CDK4/Cyclin D3 complex; Table 2) was 5.77 and the pKi ([1]; Table 2) was 5.21.

`COc1cc(Nc2nc(N)c(C3=NC(c4ccccc4)CO3)s2)cc(OC)c1OC` (stereo not shown) [I(6), S-5-(4-Phenyl-4,5-dihydro-oxazol-2-yl)-N^2-(3,4,5-trimethoxyl-phenyl)-thiazole-2,4-diamine] gave a pKi (FGF-R1) of 4.66 and a pKi ([5]; Table 2) of 7.00.

For `CON(C)C(=O)c1csc(-c2sc(Nc3ccc(S(N)(=O)=O)cc3)nc2N)n1` [N(3), 4′-Amino-2′-(4-sulfamoyl-phenylamino)-[2,5′]bithiazolyl-4-carboxylic acid methoxy-methyl-amide], the pKi (CDK2/Cyclin A complex; Table 3) was 7.00, the pKi (CDK4/Cyclin D3 complex; Table 3) was 5.96 and the melting point was 195 to 198 °C.
